Like-named read-outs stand apart in the source and are kept apart here. Square brackets hold non-standard residues; d marks the D form. Peptide text beside a SMILES is read from it. * marks the point of attachment. Sta = CC(C)C[C@H](N)[C@@H](O)CC(=O)O; Isovaleryl = CC(C)CC(=O)*
Legend:
[1] = system: ARID1A-KO HCT116 cells; test: Drug library screen, cell viability (CellTiter-Glo); format: cell-based, human; parameters: key to Cell viability, KO: % viability relative to DMSO solvent-treated cells
Procedure: (§1) ARID1A-WT and ARID1A-KO HCT116 cancer cells were used for screening assays. […] Cell viability was assessed after 5 days using the CellTiter-Glo Luminescent Cell Viability Assay (Promega). Luminescence was measured using an Envision Multi-label plate reader (PerkinElmer). The luminescence reading was used to determine the cell viability relative to that of cells treated with solvent (DMSO). Candidate compounds were considered if viability of ARID1A-KO cells was less than […] was more than 80%.

[2] = system: ARID1A-WT HCT116 cells; test: as above; format: cell-based, human; parameters: key to Cell viability, WT: % viability relative to DMSO solvent-treated cells
Procedure: as §1

[3] = HCT116 ARID1A-KO, 10 μM for 5 days, relative to cells treated with solvent (DMSO)
[4] = HCT116 ARID1A-WT, 10 μM for 5 days, relative to cells treated with solvent (DMSO)

SMILES | Cell viability, KO [1, 3] | Cell viability, WT [2, 4] | Cell viability, KO [1] | Cell viability, WT [2]
CCCC[C@@H](C)[C@@H](OC(=O)C[C@@H](CC(=O)O)C(=O)O)[C@H](C[C@@H](C)C[C@H](O)CCCC[C@@H](O)C[C@H](O)[C@H](C)N)OC(=O)C[C@@H](CC(=O)O)C(=O)O [Fumonisin B1] | 83.33 | 87.23 |  | 
COc1ccc2c(c1)c1c3c(c4c5ccccc5n(C)c4c1n2CC(O)CN(C)C)C(=O)NC3=O (centres unmarked) [Go7874] | 4.256 | 3.01 |  | 
CC1CNCCN1S(=O)(=O)c1cccc2cnccc12 (centres unmarked) [H-7] | 70.52 | 116.4721 |  | 
O=S(=O)(NCCNC/C=C/c1ccc(Br)cc1)c1cccc2cnccc12 [H-89] | 119.4541 | 78.81 |  | 
CCOC(=O)C1=C(N)Oc2ccc(Br)cc2C1C(C#N)C(=O)OCC (centres unmarked) [HA 14-1] | 119.1814 | 114.2556 |  | 
CCCCN1C(=O)C2Cc3c([nH]c4ccccc34)C(c3cccc(O)c3)N2C1=O (centres unmarked) [HR22C16] | 17.39 | 12.52 |  | 
CC(C)Cn1c(=O)n(C)c(=O)c2[nH]cnc21 [IBMX] | 114.2526 | 159.7152 |  | 
O=Cc1ccc(N2CCOCC2)cc1O [IC60211] | 174.6736 | 131.0236 |  | 
NC(=O)Nc1sc(-c2ccccc2)cc1C(N)=O [IKK-2 inhibitor VI] | 22.26 | 19.28 |  | 
O=C(Nc1nc2ccccc2n1CCN1CCOCC1)c1cccc([N+](=O)[O-])c1 [IRAK-¼ inhibitor] | 160.7174 | 142.234 |  | 
Cc1ccc2nc(NC(=O)CSc3nc4c(c(=O)n3-c3ccccc3)SCC4)sc2c1 [IWP-2] | 90.8 | 78.56 |  | 
O=C(Nc1cccc2cccnc12)c1ccc(N2C(=O)[C@@H]3[C@H](C2=O)[C@@H]2C=C[C@H]3C2)cc1 [IWR-1-endo] | 75.98 | 76.34 |  | 
CCOc1nc(NC(=O)Cc2cc(OC)ccc2OC)cc(N)c1C#N [JNK inhibitor VIII] | 189.4425 | 127.134 |  | 
COc1ccc(S(=O)(=O)N(CCO)c2ccccc2CN(C)C/C=C/c2ccc(Cl)cc2)cc1 [KN93] | 23.47 | 20.89 |  | 
CN([C@@H](Cc1ccc(OS(=O)(=O)c2cccc3cnccc23)cc1)C(=O)N1CCN(c2ccccc2)CC1)S(=O)(=O)c1cccc2cnccc12 [KN-62] |  |  | 131.0212 | 113.3229
COC(=O)[C@@]1(OC)C[C@H]2O[C@]1(C)n1c3ccccc3c3c4c(c5c6ccccc6n2c5c31)C(=O)N(C)C4 [KT 5823] | 111.294 | 102.1181 |  | 
CNC(=N)NCCC[C@H](N)C(=O)O [L-NMMA] | 116.4094 | 167.9828 |  | 
c1ccc2c(-c3cnn4cc(-c5ccc(N6CCNCC6)cc5)cnc34)ccnc2c1 [LDN193189] | 2.712 | 2.832 |  | 
C/C(O)=C(\C#N)C(=O)Nc1cc(Br)ccc1Br [LFM-A13] | 106.7176 | 93.88 |  | 
O=c1cc(N2CCOCC2)oc2c(-c3ccccc3)cccc12 [LY294002] | 119.3969 | 127.2893 |  | 

SMILES | Cell viability, KO [1, 3] | Cell viability, WT [2, 4] | Cell viability, KO [1] | Cell viability, WT [2]
Cc1cccc(-c2nn3c(c2-c2ccnc4ccc(C(N)=O)cc24)CCC3)n1 [LY2157299] | 113.5072 | 91.31 |  | 
O=C1C(Nc2ccccc2)=CC(=O)c2ncccc21 [LY 83583] | 4.788 | 4.357 |  | 
CCC(=C/[C@H](C)C/C=C/C(C)=C/[C@@H](C)C(=O)[C@@H](C)[C@H](O)[C@@H](C)C/C(C)=C/C(=O)O)/C=C/[C@@H]1OC(=O)C=C[C@@H]1C [Leptomycin B*, Leptomycin B] | 4.969 | 5.031 |  | 
CC(C)c1ccc2c(c1)c(SC(C)(C)C)c(CC(C)(C)C(=O)O)n2Cc1ccc(Cl)cc1 [MK 886] | 112.1339 | 116.7328 |  | 
O=S(=O)(c1cccc2c(I)cccc12)N1CCCNCC1 [ML-7] | 78.88 | 76.67 |  | 
O=C(Nc1cccc(NC(=O)c2cccc(O)c2O)c1)c1cccc(O)c1O [MST-312] | 7.703 | 7.363 |  | 
CCCC[C@@H](C)/C=C(C)/C=C(\C)C(=O)NC1=C[C@@](O)(/C=C/C=C/C=C/C(=O)NC2=C(O)CCC2=O)[C@@H]2O[C@@H]2C1=O [Manumycin A] | 52.57 | 61.22 |  | 
CCNCCCNCCCCNCCCNCC [N1,N12-Diethylspermine (BESpm), N1,N12-Diethylspermine] | 37.8 | 32.23 |  | 
O=C1C(SCCO)=C(SCCO)C(=O)c2ccccc21 [NSC95397] | 15.8033 | 41.93 |  | 
COc1ccc(OC)c2c(=S)c3ccccc3[nH]c12 [NSC625987] | 161.7582 | 136.0173 |  | 
Cc1nc2c(O)cccc2c(=O)[nH]1 [NU1025] | 123.2356 | 174.885 |  | 
NS(=O)(=O)c1ccc(Nc2nc(OCC3CCCCC3)c3[nH]cnc3n2)cc1 [NU6102] | 124.8924 | 112.51 |  | 
COc1ccc(C2=N[C@@H](c3ccc(Cl)cc3)[C@@H](c3ccc(Cl)cc3)N2C(=O)N2CCNC(=O)C2)c(OC(C)C)c1 [Nutlin-3] | 25.82 | 23.89 |  | 
CCCCCCCCCCCCCCCCCCc1ccc(C(=O)/C=C/C(=O)O)cc1 [OBAA] | 110.9715 | 199.8448 |  | 
O=c1onc2cnc3ccccc3n12 [ODQ] | 84.9 | 84.47 |  | 
C=CCc1cccc(/C=N/NC(=O)CN2CCN(Cc3ccccc3)CC2)c1O [PAC-1] | 9.44 | 6.045 |  | 
COc1ccc(Cn2ccc3ccc(C(=O)NO)cc32)cc1 [PCI-34051] | 72.3 | 71.67 |  | 
O=[N+]([O-])c1ccc(-c2nc(-c3ccc(F)cc3)c(-c3ccncc3)[nH]2)cc1 [PD169316] | 151.5532 | 161.5329 |  | 
CCN(CC)CCCCNc1ncc2cc(-c3cc(OC)cc(OC)c3)c(NC(=O)NC(C)(C)C)nc2n1 [PD173074] | 7.568 | 8.446 |  | 
COc1cccc(-c2cc(=O)c3ccccc3o2)c1N [PD 98059] | 111.8217 | 168.8128 |  | 

SMILES | Cell viability, KO [1, 3] | Cell viability, WT [2, 4] | Cell viability, KO [1] | Cell viability, WT [2]
OCCn1cc(-c2cnc3nnn(Cc4ccc5ncccc5c4)c3n2)cn1 [PF-04217903] | 93.9615 | 86.5829 |  | 
O=C(Cc1ccccc1)Nc1c2c(nc3ccccc13)N(Cc1ccccc1)CC2 [PGP-4008] | 117.1066 | 106.0362 |  | 
CN(C)CC(=O)Nc1ccc2[nH]c(=O)c3ccccc3c2c1 [PJ-34] |  |  | 15.94 | 18.28
O=C1Nc2ccc3ncsc3c2/C1=C/c1cnc[nH]1 [PKR inhibitor] |  |  | 16.84 | 8.714
CC(C)(C)n1nc(-c2cccc3ccccc23)c2c(N)ncnc21 [PP1 analog] | 69.2339 | 76.55 |  | 
CC(C)(C)n1nc(-c2ccc(Cl)cc2)c2c(N)ncnc21 [PP2] | 149.4142 | 121.2434 |  | 
CC(C)CC(=O)N[C@H](C(=O)N[C@H](C(=O)N[C@@H](CC(C)C)[C@@H](O)CC(=O)N[C@@H](C)C(=O)N[C@@H](CC(C)C)[C@@H](O)CC(=O)O)C(C)C)C(C)C [Pepstatin A] (Isovaleryl-VV[Sta]A[Sta]-OH) | 126.4531 | 115.9467 |  | 
Cc1ccc(-c2cn3c4c(sc3n2)CCCC4)cc1 [Pifithrin-a (cyclic)] | 99.94 | 91.15 |  | 
CC(C)[C@H](CO)Nc1nc(Nc2cccc(Cl)c2)c2ncn(C(C)C)c2n1 [Purvalanol A] | 33.47 | 51.32 |  | 
O=C1Nc2ccc(I)cc2/C1=C/c1cc(Br)c(O)c(Br)c1 [RAF1 kinase inhibitor I] | 164.7652 | 127.271 |  | 
O=C(NCCCCCCNC(=O)ON=C1CCCCC1)ON=C1CCCCC1 [RHC80267] | 92.22 | 82.45 |  | 
O=C1Nc2ccccc2C2(CCN(CCc3ccc(C(F)(F)F)cc3)CC2)O1 [RS 102895] | 47.58 | 37.34 |  | 
CN1C(=O)CN=C(c2ccc(Cl)cc2)c2cc(Cl)ccc21 [Ro 5-4864] | 98.27 | 92.88 |  | 
CCCCOc1cc(CC2CNC(=O)N2)ccc1OC (centres unmarked) [Ro-20-1724] | 105.8008 | 163.0432 |  | 
Nc1ncnc2c1nc(Sc1ccc(Cl)cc1)n2[C@@H]1O[C@@H]2COP(O)(=S)O[C@H]2[C@H]1O (some centres unmarked) [Rp-8-CPT-cOMPS] | 135.7084 | 110.9572 |  | 
NC1CC1c1cc(F)cc(F)c1OCc1ccccc1 (centres unmarked) [S2101 (LSD1 inhibitor II)] | 83.95 | 80.52 |  | 
Oc1ccc(-c2nc(-c3ccc(F)cc3)c(-c3ccncc3)[nH]2)cc1 [SB202190] | 191.0939 | 108.8022 |  | 
COc1nccc(-c2c(-c3ccc(F)cc3)ncn2C2CCC(O)CC2)n1 (centres unmarked) [SB239063] | 174.3691 | 118.4502 |  | 
